Tests used:
UVB-irradiated HDF cells = assay: Apoptosis detection, Annexin V-FITC/PI flow cytometry; assay type: cell-based, human; conditions: UVB-irradiated cells exposed to SA 10, 25, 50 mM
Method: Figure 4 (A) SRB and Trypan blue cell viability assays performed in cells treated with or without Shikimic acid (5, 10, 25 and 50 mM) for 24h. (B) Apoptosis detection using the Annexin V-FITC/PI double staining followed by flow cytometry in non-irradiated and non-treated cells, irradiated and non-treated cells and irradiated cells treated with Shikimic acid (10, 25 and 50 mM). (C) Representation and statistical analysis of the percentage of apoptotic cells in each of the conditions analyzed. (D) Cell cycle analysis using PI staining followed by flow cytometry. (E) Relative p16^INK4a mRNA levels monitored by qPCR in the indicated conditions. Student T-test, *p<0.05. (F) Immunofluorescence of γH2AX in non-irradiated and non-treated cells, irradiated and non-treated cells and irradiated cells treated with Shikimic acid (10, 25 and 50 mM). […]
Fluorescence-activated cell sorting (FACS) analyses of the cell cycle and apoptosis were carried out using, respectively, a Propidium Iodide Flow Cytometry Kit (Abcam, UK), and an Annexin V-FITC Apoptosis Staining/Detection Kit (Abcam, UK), following the manufacturer’s instructions. […]

chaperone BiP = assay: BiP protein levels (Western blot); assay type: cell-based, human; conditions: UVB-irradiated cells, SA -/+ EX-527 1 μM
Method: Figure 5 (A) Western-blot of BiP proteins levels in UVB or non UVB irradiated cells treated with SA at the indicated concentrations in presence or absence of EX-527 1 μM. (B) Quantification of n=3 experiments as (A). The levels of BiP are normalized by the loading control (histone H3) and represented related to the conditions in UVB irradiated cells in absence of SA and EX-527. Student T-test, *p<0.05. (C) Percentage of SA-β-Gal in assays performed as in Figure 3C. (D) Levels of spliced and unspliced XBP1 mRNA monitored by qPCR analysis in cells treated in the indicated conditions in presence or absence of SA and/or EX-527. The levels were normalized by internal controls and represented in each case related to the conditions in UVB irradiated cells in absence of SA and EX-527. Student T-test, *p<0.05, **p<0.01, ***p<0.001. (E) LC3-II protein levels in experiments like in (A). The levels of LC3-II are normalized by the loading control (tubulin) and represented related to the conditions in UVB irradiated cells in absence of SA and EX-527. Student T-test, *p<0.05. (F) Proposed Model for the effect of SA on senescence through SIRT1. Other possible unexplored connections between SA and senescence are indicated by blue broken lines.
Protein levels were analyzed as previously described. Cells were directly lysed in 1x Laemmli Buffer (Bio-Rad, USA), incubated at 95° C and centrifuged. […]

[1] = tested on: primary human dermal fibroblasts (HDFs); conditions: female, human
Excerpt: In our efforts to identify novel factors that could prevent skin cell senescence, we developed a screening process to identify new modulators of the protective role of sirtuins in UV-induced senescence. For this purpose, we established a culture of primary human dermal fibroblasts (HDFs). […] Our first step in the screening was to establish the optimal concentrations of these compounds in the case of HDFs. […] Once established, we took these parameters into account to decide the specific working range of concentrations for each compound.
Human dermal fibroblasts (HDFs) (Promocell, Germany) from 40-year old Caucasian women were used as the in vitro model for compound viability and efficacy screening. Cells were cultured in Dulbecco's modified eagle medium (DMEM) low glucose (Biowest, France) supplemented with 10% fetal bovine serum (FBS) (Capricorn Scientific, Germany) and 10 U/mL penicillin/streptomycin (Biowest, France) in a humidified incubator at 37° C and 5% CO2. For cell passage, cells at 80% confluence were trypsinized and plated at 60% confluence. Cells between passage 13 and 18 were used for the assays. For the SIRT1 in vitro assay, HEK293 cells (ATCC, USA), used to transfect and immunoprecipitate SIRT1 protein, were grown in DMEM high glucose (Thermo Fisher Scientific, USA), supplemented with 10% FBS in a humidified incubator at 37° C and 5% CO2. The following experiments were all performed in triplicate.
The protocol for senescence induction using UVB irradiation is described in the Supplementary Methods. SA-β-Gal staining, WST-1, sulforhodamine B (SRB) and trypan blue assays were performed as previously described. For the siRNA experiments, the protocol for senescence induction using UVB irradiation was the same as in the Supplementary Methods. Specific siRNA (Horizon discovery, UK) for SIRT1, SIRT2, SIRT6, BiP or scramble siRNA were incubated for 6 hours before each irradiation step.

Compound: O=C(O)C1=C[C@@H](O)[C@@H](O)[C@H](O)C1 [Shikimic acid]
- early apoptosis (annexin V, text) (UVB-irradiated HDF cells): very mild and mostly insignificant levels of early apoptosis
- BiP protein levels (chaperone BiP): induced upregulation of chaperone BiP
- LD50 [1]: 58.44 mM
- Max. non-cyt. doses [1]: 25 mM
